Test results reported in ChEMBL document CHEMBL4184156, “Repurposing Hsp90 inhibitors as antibiotics targeting histidine kinases” (Bioorg Med Chem Lett, 2017).
Values after ≈ are worked out from the molar mass of the structure shown. Active and inactive are the calls of the source. The calls are words filed in the database; no cut-off is given here.

What was measured:
[1] = biological target: Cell cycle histidine kinase CckA (Caulobacter vibrioides, UniProt Q9X688); test: Inhibition of recombinant Caulobacter vibrioides cell cycle histidine kinase CckA deltaTM mutant DHp domain (70 to 691 residues) expressed in Escherichia coli in presence of varying levels of ATP measured every 60 secs for 2 hrs by PK/LDH enzyme coupled assay
Caulobacter vibrioides = test: Antibacterial activity against Caulobacter crescentus NA1000 after 24 hrs by broth dilution method; format: functional; conditions: NA1000, 24 h
Escherichia coli = test: Antibacterial activity against Escherichia coli DC2 after 24 hrs by broth dilution method; format: functional; conditions: DC2, 24 h
[2] = biological target: T1, Virulence sensor histidine kinase PhoQ (Salmonella typhimurium (strain LT2 / SGSC1412 / ATCC 700720)) (UniProt P0DM80); test: (§1) Inhibition of recombinant Salmonella typhimurium N-terminal His6-SUMO-tagged DHp-catalytic domain PhoQ (257 to 487 residues) autophosphorylation expressed in Escherichia coli BL21(DE3) at 500 uM preincubated for 10 mins followed by [gamma-32P]-ATP addition after 30 mins by phosphotransferase dot blot assay relative to control; design: scale not given: the % may be the effect or the level left; conditions: Salmonella enterica subsp. enterica serovar Typhimurium
T1 sequence (whole entry): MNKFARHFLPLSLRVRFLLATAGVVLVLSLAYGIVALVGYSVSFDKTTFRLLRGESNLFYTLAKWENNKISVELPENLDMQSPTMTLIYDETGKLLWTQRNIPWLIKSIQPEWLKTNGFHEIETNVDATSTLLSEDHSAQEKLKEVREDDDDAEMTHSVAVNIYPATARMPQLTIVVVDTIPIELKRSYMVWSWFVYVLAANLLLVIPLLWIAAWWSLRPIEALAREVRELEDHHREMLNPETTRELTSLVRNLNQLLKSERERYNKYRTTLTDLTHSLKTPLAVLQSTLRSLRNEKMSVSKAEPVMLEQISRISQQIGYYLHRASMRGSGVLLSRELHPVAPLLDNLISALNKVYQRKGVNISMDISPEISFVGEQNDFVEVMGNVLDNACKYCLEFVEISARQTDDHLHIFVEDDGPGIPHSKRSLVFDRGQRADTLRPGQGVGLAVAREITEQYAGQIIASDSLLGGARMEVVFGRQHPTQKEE

[3] = biological target: T2, Cell cycle histidine kinase CckA (Caulobacter vibrioides) (UniProt Q9X688); test: Binding affinity to recombinant Caulobacter vibrioides cell cycle histidine kinase CckA delta 3 mutant DHp domain (190 to 562 residues) expressed in Escherichia coli assessed as change in metlting temperature at 30 uM after 2 mins by SYPRO orange dye based DSF assay
T2 sequence (whole entry): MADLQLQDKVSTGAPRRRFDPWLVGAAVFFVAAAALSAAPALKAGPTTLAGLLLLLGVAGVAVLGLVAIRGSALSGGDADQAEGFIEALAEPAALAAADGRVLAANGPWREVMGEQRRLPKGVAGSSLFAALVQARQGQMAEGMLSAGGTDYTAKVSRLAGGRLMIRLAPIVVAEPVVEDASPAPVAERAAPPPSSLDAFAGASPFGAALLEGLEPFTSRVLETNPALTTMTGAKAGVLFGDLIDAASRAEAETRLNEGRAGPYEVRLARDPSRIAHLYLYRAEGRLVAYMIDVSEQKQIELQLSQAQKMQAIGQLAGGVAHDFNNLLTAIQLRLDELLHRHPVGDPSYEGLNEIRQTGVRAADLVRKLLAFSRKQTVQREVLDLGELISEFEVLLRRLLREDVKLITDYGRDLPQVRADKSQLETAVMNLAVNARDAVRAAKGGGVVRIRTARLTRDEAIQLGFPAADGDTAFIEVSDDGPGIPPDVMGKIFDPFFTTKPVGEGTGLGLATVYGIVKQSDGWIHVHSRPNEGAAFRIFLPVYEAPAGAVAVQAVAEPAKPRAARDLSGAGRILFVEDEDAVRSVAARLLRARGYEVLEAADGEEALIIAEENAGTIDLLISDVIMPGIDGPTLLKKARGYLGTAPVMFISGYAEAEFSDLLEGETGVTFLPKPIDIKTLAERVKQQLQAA

[4] = biological target: T3, Histidine protein kinase DivJ (Caulobacter vibrioides (strain ATCC 19089 / CB15) (Caulobactercrescentus)) (UniProt Q03228); test: as §1, with “Caulobacter vibrioides” for “Salmonella typhimurium”, “His6-tagged” for “His6-SUMO-tagged”, “DivJ (188” for “PhoQ (257”, “585” for “487”, “15” for “30”; design: scale not given: the % may be the effect or the level left
T3 sequence (whole entry): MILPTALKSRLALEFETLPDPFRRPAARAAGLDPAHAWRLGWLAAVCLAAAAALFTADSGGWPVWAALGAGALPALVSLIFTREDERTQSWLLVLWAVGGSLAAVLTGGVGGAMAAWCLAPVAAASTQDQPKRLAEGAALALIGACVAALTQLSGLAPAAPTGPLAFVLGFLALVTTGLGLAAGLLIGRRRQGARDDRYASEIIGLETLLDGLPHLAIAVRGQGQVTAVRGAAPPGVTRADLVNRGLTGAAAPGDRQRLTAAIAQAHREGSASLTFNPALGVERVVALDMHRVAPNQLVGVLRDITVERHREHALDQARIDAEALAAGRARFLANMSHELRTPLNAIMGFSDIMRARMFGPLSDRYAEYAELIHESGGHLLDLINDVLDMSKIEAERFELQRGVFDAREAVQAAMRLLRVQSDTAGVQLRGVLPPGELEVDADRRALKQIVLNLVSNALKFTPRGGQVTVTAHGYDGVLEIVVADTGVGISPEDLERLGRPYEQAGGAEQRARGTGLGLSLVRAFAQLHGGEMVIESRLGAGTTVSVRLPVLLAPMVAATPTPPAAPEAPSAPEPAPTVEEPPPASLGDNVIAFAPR

Bacillus subtilis = test: Antibacterial activity against Bacillus subtilis YB886 after 24 hrs by broth dilution method; format: functional; conditions: YB886, 24 h
[5] = Hemolytic activity against sheep RBC at 0.5 mM after 30 mins relative to control; format: ADME, cell-based, Ovis aries, Erythrocyte; conditions: sheep red blood cells (erythrocytes), read-out: Activity
[6] = biological target: T1, Virulence sensor histidine kinase PhoQ (Salmonella typhimurium (strain LT2 / SGSC1412 / ATCC 700720)); test: Inhibition of recombinant Salmonella typhimurium N-terminal His6-SUMO-tagged PhoQ (257 to 487 residues) expressed in Escherichia coli BL21 (DE3) assessed as enzyme aggregation at 400 uM after 30 mins by native-PAGE analysis; conditions: Salmonella enterica subsp. enterica serovar Typhimurium
[7] = biological target: T1, Virulence sensor histidine kinase PhoQ (Salmonella typhimurium (strain LT2 / SGSC1412 / ATCC 700720)); test: as §1, with “BL21 (DE3)” for “BL21(DE3)”, “800” for “500”; design: scale not given: the % may be the effect or the level left; conditions: Salmonella enterica subsp. enterica serovar Typhimurium
[8] = biological target: T4, Virulence sensor histidine kinase PhoQ (Salmonella typhimurium (strain LT2 / SGSC1412 / ATCC 700720), UniProt P0DM80); test: Inhibition of recombinant Salmonella typhimurium N-terminal His6-SUMO-tagged DHp-catalytic domain PhoQ (257 to 487 residues) autophosphorylation expressed in Escherichia coli BL21 (DE3) preincubated for 10 mins followed by [gamma-32P]-ATP addition after 30 mins by phosphotransferase dot blot assay; design: species or system Salmonella enterica subsp. enterica serovar Typhimurium
T4 sequence (P0DM80 whole entry): T1 sequence (whole entry)

[9] = biological target: T2, Cell cycle histidine kinase CckA (Caulobacter vibrioides); test: Inhibition of recombinant Caulobacter vibrioides cell cycle histidine kinase CckA deltaTM mutant DHp domain (70 to 691 residues) expressed in Escherichia coli at 250 uM in presence of varying levels of ATP measured every 60 secs for 2 hrs by PK/LDH enzyme coupled assay relative to control

Q: Which IC50 [1] does the source give for `COc1ccc(-c2c[nH]nc2-c2ccc(O)cc2O)cc1` here?
A: Its IC50 is 56.9 µM.

Q: And the MIC (Caulobacter vibrioides)?
A: Its MIC is over 300 µM.

Q: And the MIC (Escherichia coli)?
A: Its MIC is 37.5 to 112 µM (≈ 10.6 to 31.8 µg/mL).

Q: What about the Activity [2] of the same compound?
A: Its Activity is 87%.

Q: What about the ΔTm [3] of the same compound?
A: The ΔTm was 3.5 °C.

Q: And the Activity [4]?
A: Its Activity is 85%.

Q: And the MIC (Bacillus subtilis)?
A: Its MIC is over 300 µM.

Q: What about the hemolysis at 0.5 h, 500 µM [5] of the same compound?
A: Its hemolysis at 0.5 h, 500 µM is 3%.

Q: For `Cc1[nH]nc(-c2cc(Cl)c(O)cc2O)c1-c1ccccc1`, which IC50 [1] is on record?
A: Its IC50 is 17.5 µM.

Q: What about the hemolysis at 0.5 h, 500 µM [5] of the same compound?
A: The hemolysis at 0.5 h, 500 µM was 1%.

Q: For `COc1ccc(-c2c[nH]nc2-c2cc(Cl)c(O)cc2O)cc1`, which IC50 [1] is on record?
A: Its IC50 is 32.7 µM.

Q: And the MIC (Caulobacter vibrioides)?
A: The MIC was 225 µM (≈ 71.3 µg/mL).

Q: What about the MIC (Escherichia coli) of the same compound?
A: The MIC was 37.5 µM (≈ 11.9 µg/mL).

Q: What about the Activity [2] of the same compound?
A: The Activity was 62%.

Q: What about the ΔTm [3] of the same compound?
A: The ΔTm was 4.2 °C.

Q: And the Activity [4]?
A: Its Activity is 112%.

Q: What about the MIC (Bacillus subtilis) of the same compound?
A: The MIC was 150 µM (≈ 47.5 µg/mL).

Q: And the hemolysis at 0.5 h, 500 µM [5]?
A: The hemolysis at 0.5 h, 500 µM was 0%.

Q: With `Oc1cc(O)c(-c2n[nH]cc2-c2ccc3c(c2)OCCO3)cc1Cl` as the compound, how does the IC50 [1] read?
A: The IC50 was 32.3 to 44 µM.

Q: What about the hemolysis at 0.5 h, 500 µM [5] of the same compound?
A: The hemolysis at 0.5 h, 500 µM was 1%.

Q: With `Oc1cc(O)c(-c2[nH]ncc2-c2ccc3c(c2)OCCO3)cc1Cl` as the compound, how does the MIC (Caulobacter vibrioides) read?
A: The MIC was 150 to 225 µM (≈ 51.7 to 77.6 µg/mL).

Q: And the MIC (Escherichia coli)?
A: Its MIC is 37.5 to 75 µM (≈ 12.9 to 25.9 µg/mL).

Q: What about the Activity [2] of the same compound?
A: The Activity was 63%.

Q: What about the ΔTm [3] of the same compound?
A: Its ΔTm is 3.3 °C.

Q: And the inhibition [6]?
A: The inhibition was “inactive”.

Q: And the Activity [4]?
A: The Activity was 117%.

Q: What about the Activity [7] of the same compound?
A: The Activity was 48%.

Q: And the MIC (Bacillus subtilis)?
A: Its MIC is 112 to 225 µM (≈ 38.8 to 77.6 µg/mL).

Q: Which IC50 [1] does the source give for `COc1ccc(-c2c(-c3ccc(O)cc3O)n[nH]c2C)cc1` here?
A: Its IC50 is 46 µM.

Q: What about the MIC (Caulobacter vibrioides) of the same compound?
A: Its MIC is over 300 µM.

Q: What about the MIC (Escherichia coli) of the same compound?
A: Its MIC is 75 to 150 µM (≈ 22.2 to 44.4 µg/mL).

Q: And the Activity [2]?
A: The Activity was 76%.

Q: What about the ΔTm [3] of the same compound?
A: The ΔTm was 2.5 °C.

Q: And the Activity [4]?
A: Its Activity is 117%.

Q: And the MIC (Bacillus subtilis)?
A: The MIC was over 300 µM.

Q: What about the hemolysis at 0.5 h, 500 µM [5] of the same compound?
A: The hemolysis at 0.5 h, 500 µM was 2%.

Q: With `CCc1cc(-c2n[nH]c(C)c2-c2ccc3c(c2)OCCO3)c(O)cc1O` as the compound, how does the IC50 [1] read?
A: The IC50 was 28 to 30 µM.

Q: What about the IC50 [8] of the same compound?
A: The IC50 was 261 µM.

Q: And the hemolysis at 0.5 h, 500 µM [5]?
A: The hemolysis at 0.5 h, 500 µM was 14%.

Q: With `Oc1cc(O)c(-c2n[nH]cc2-c2ccccc2)cc1Cl` as the compound, how does the IC50 [1] read?
A: The IC50 was 33.6 µM.

Q: What about the MIC (Caulobacter vibrioides) of the same compound?
A: The MIC was 150 to 225 µM (≈ 43 to 64.5 µg/mL).

Q: And the MIC (Escherichia coli)?
A: Its MIC is 37.5 µM (≈ 10.8 µg/mL).

Q: And the Activity [2]?
A: The Activity was 63%.

Q: What about the ΔTm [3] of the same compound?
A: The ΔTm was 3.5 °C.

Q: What about the Activity [4] of the same compound?
A: Its Activity is 92%.

Q: What about the MIC (Bacillus subtilis) of the same compound?
A: Its MIC is 225 µM (≈ 64.5 µg/mL).

Q: And the hemolysis at 0.5 h, 500 µM [5]?
A: The hemolysis at 0.5 h, 500 µM was 0%.

Q: With `COc1c(C)cnc(Cn2cnc3c(Cl)nc(N)nc32)c1C` [BIIB021] as the compound, how does the MIC (Caulobacter vibrioides) read?
A: The MIC was over 300 µM.

Q: And the MIC (Escherichia coli)?
A: The MIC was over 300 µM.

Q: What about the inhibition [9] of the same compound?
A: The inhibition was 87%.

Q: And the Activity [2]?
A: Its Activity is 87%.

Q: And the ΔTm [3]?
A: Its ΔTm is 0.7 °C.

Q: And the Activity [4]?
A: The Activity was 128%.

Q: What about the MIC (Bacillus subtilis) of the same compound?
A: The MIC was over 300 µM.

Q: What about the hemolysis at 0.5 h, 500 µM [5] of the same compound?
A: The hemolysis at 0.5 h, 500 µM was 6%.
